Consider one compound from PMC9946977, “Identification of linderalactone as a natural inhibitor of SHP2 to ameliorate CCl4-induced liver fibrosis” (Frontiers in Pharmacology, 2023).

The target in the test is T1, SHP2 PTP domain (Homo sapiens, UniProt Q06124).
T1 construct: Human SHP2 PTP domain (A237–I529) expression constructs; His-tag; made in house; host or cells: E. coli BL21 (DE3)
T1 sequence (Q06124 237-529): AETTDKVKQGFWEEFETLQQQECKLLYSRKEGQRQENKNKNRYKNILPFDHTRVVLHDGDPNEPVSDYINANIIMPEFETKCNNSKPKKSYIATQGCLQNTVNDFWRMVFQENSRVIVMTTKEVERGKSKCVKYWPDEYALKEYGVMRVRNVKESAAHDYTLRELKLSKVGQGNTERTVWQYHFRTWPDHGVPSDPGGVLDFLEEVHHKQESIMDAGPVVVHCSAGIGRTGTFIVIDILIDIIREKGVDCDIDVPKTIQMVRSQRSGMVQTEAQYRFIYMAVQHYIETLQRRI
As to the kind of experiment: SHP2 inhibition assay (DiFMUP) with SHP2-PTP; HTS and dose-response. Particulars: 0.5 nM SHP2-PTP, DiFMUP substrate, 30 min co-incubation at 20°C; read-out: IC50 against the SHP2 PTP domain. Format: biochemical. The protocol:
Human SHP2 PTP domain (A237–I529) expression constructs were engineered by cloning PTPN11 (NP_002825.3) into the pET30 plasmid with a His-tag to support further protein purification. The K366A/Q510A double mutation was introduced into the wild-type template using a site-directed mutagenesis kit (E0554S; New England Biolabs). The expression constructs were sequenced and transformed into BL21 (DE3)-competent cells. E. coli cells were grown at 37°C in an LB culture medium in the presence of […] kanamycin until the OD600 reached 1.0. The medium was then cooled to 18°C and 1 mM isopropyl ß-D-1-thiogalactopyranoside (IPTG) was added to induce protein expression overnight.
A surrogate phosphatase substrate, 6,8-difluoro-4-methylumbelliferyl phosphate (DiFMUP, Thermo Fisher, #D22065), was used to monitor the catalytic activity of SHP2 in a prompt fluorescence assay format. Specifically, the DiFMUP phosphatase assay was performed at 20°C in a 384-well Griener CELLSTAR black polystyrene plate in the buffer condition of 60 mM HEPES (pH7.5), 75 mM NaCl, 75 mM KCl, 1 mM EDTA, 0.05% Tween-20, 5 mM dithiothreitol (DTT). The final reaction volume was 25 μL. NP compound libraries were obtained from TargetMol at a stock concentration of 10 mM, dissolved in DMSO. The purity of the active compound LIN used in this study is 96.27% as tested by HPLC analysis. The HPLC traces is shown in Supporting Information. We co-incubated 0.5 nM of SHP2-PTP enzyme with tested NPs for 30 min at 20°C, followed by the addition of DiFMUP into the reaction. After 30 min, 5 μL of bpV(phen) solution was added to quench the dephosphorylation reaction. The signals were read on a plate reader (SpectraMax iD5, Molecular Devices). The excitation and emission wavelengths were 340 and 450 nm, respectively. The inhibitor dose-response curves were evaluated using a normalised IC50 regression curve fitting with control-based normalisation. For the full-length SHP2 inhibition assay, 0.5 μM of a bisphosphorylated pIRS-1 peptide (ChinaPeptides Ltd. Shanghai) was added for partial SHP2 activation. […]

For orientation: IC50 means the concentration needed to halve the response being measured. `C=C1C2CC2[C@@]2(C)Cc3occ(C)c3C(O)C12` (stereo partly shown) [Lindenenol, lindenenol]: the IC50 amounted to 12.6 ± 4.2 µM.
